The values that follow come from patent publication US9540348B2, “Imidazole-1-yl pyrimidine derivatives, or pharmacutically acceptable salt thereof, and pharmaceutic composition comprising the same as an active ingredient” (Industry-University Cooperation Foundation Hanyang …, priority 2015, dated 2017).

Entries after “also recorded” stand apart in the source; their conditions may differ.

What is called GI50 is the concentration that inhibits growth by half.

Experiment [1] has as its system U937 human leukemic monocyte lymphoma cell line. Put plainly: Antiproliferative activity to U937 human leukemic monocyte lymphoma cell line. It counts as cell-based. Particulars: for GI50: U-937, U937 human leukemic monocyte lymphoma cell line, read-out: U937 (GI50, Unit: μM); for potency against U937, in words: U937 cell line, comparison with Sorafenib. How it is done:
(§1) The antiproliferative activity of the compounds of Examples to A375P human melanoma cell line and U937 human leukemic monocyte lymphoma cell line are evaluated and listed in the following Table 1.

For experiment [2], the system named is A375P human melanoma cell line. Put plainly: Antiproliferative activity to A375P human melanoma cell line. The class given is cell-based. Particulars: for GI50: A375P human melanoma cell line, read-out: A375P (GI50, Unit: μM); for potency against A375P, in words: A375P cell line, comparison with Sorafenib. The method, then: as §1

Regarding `CNC(=O)c1cc(Oc2ccc(NC(=O)Nc3ccc(Cl)c(C(F)(F)F)c3)cc2)ccn1` [Sorafenib, reference compound], the values for the 50% growth inhibitory concentration (GI50) in experiment [1] and in experiment [2] were 2.74 µM and 3.4 µM, respectively.

For `C[C@H](O)CNc1nccc(-n2ccnc2C(=O)c2cccc(NC(=O)c3cc(N4CCOCC4)cc(C(F)(F)F)c3)c2)n1` [Example 27, (S)—N-(3-(1-(2-((2-hydroxypropyl)amino)pyrimidin-4-yl)-1H-imidazole-2-carbonyl)phenyl)-3-morpholino-5-(trifluoromethyl)benzamide], the GI50 in experiment [1] worked out at 4.9 µM.

For `Cc1c(C)c2c(c(C)c1O)CC[C@](C)(C(=O)Nc1cccc(Cc3nccn3-c3ccnc(NC[C@H](C)O)n3)c1)O2` [Example 16, (R)-6-hydroxy-N-(3-((1-(2-(((S)-2-hydroxypropyl)amino)pyrimidin-4-yl)-1H-imidazol-2-yl)methyl)phenyl)-2,5,7,8-tetramethylchromane-2-carboxamide], in experiment [1], the GI50 came to 23.6 µM.

As to `C[C@H](O)CNc1nccc(-n2ccnc2Cc2cccc(NC(=O)c3cc(N4CCN(C)CC4)cc(C(F)(F)F)c3)c2)n1` [Example 1, (S)—N-(3-((1-(2-((2-hydroxypropyl)amino)pyrimidin-4-yl)-1H-imidazol-2-yl)methyl)phenyl)-3-(4-methylpiperazin-1-yl)-5-(trifluoromethyl)benzamide], the GI50 in experiment [1] is over 30 µM; in experiment [2] it was 12.3 µM.

`C[C@H](O)CNc1nccc(-n2ccnc2Cc2cccc(NC(=O)c3ccccc3Sc3ccccc3C#N)c2)n1` [Example 15, (S)-2-((2-cyanophenyl)thio)-N-(3-((1-(2-((2-hydroxypropyl)amino)pyrimidin-4-yl)-1H-imidazol-2-yl)methyl)phenyl)benzamide]: the GI50 in experiment [1] was 10 µM.

Consider `C[C@H](O)CNc1nccc(-n2ccnc2C(=O)c2ccc(NC(=O)c3cccc(Cl)c3)cc2)n1` [Example 34, (S)-3-chloro-N-(4-(1-(2-((2-hydroxypropyl)amino)pyrimidin-4-yl)-1H-imidazole-2-carbonyl)phenyl)benzamide], for which, in experiment [2], the GI50 is 5.92 µM.

Turning to `C[C@H](O)CNc1nccc(-n2ccnc2Cc2cccc(NC(=O)c3cnn(-c4ccccc4)c3C(F)(F)F)c2)n1` [Example 5, (S)—N-(3-((1-(2-((2-hydroxypropyl)amino)pyrimidin-4-yl)-1H-imidazol-2-yl)methyl)phenyl)-1-phenyl-5-(trifluoromethyl)-1H-pyrazole-4-carboxamide], the GI50 in experiment [1] amounted to 25.8 µM; in experiment [2], 6.39 µM.

For `C[C@H](O)CNc1nccc(-n2ccnc2C(=O)c2ccc(NC(=O)c3ccc(Cl)cc3)cc2)n1` [Example 33, (S)-4-chloro-N-(4-(1-(2-((2-hydroxypropyl)amino)pyrimidin-4-yl)-1H-imidazole-2-carbonyl)phenyl)benzamide], in experiment [2], the GI50 came to 7.07 µM.

Consider `C[C@H](O)CNc1nccc(-n2ccnc2Cc2cccc(NC(=O)c3ccncc3)c2)n1` [Example 10, (S)—N-(3-((1-(2-((2-hydroxypropyl)amino)pyrimidin-4-yl)-1H-imidazol-2-yl)methyl)phenyl)isonicotinamide], for which the GI50 in experiment [2] amounted to 8.92 µM.

Regarding `Cc1cc(C)cc(C(=O)Nc2cccc(Cc3nccn3-c3ccnc(NC[C@H](C)O)n3)c2)c1` [Example 2, (S)—N-(3-((1-(2-((2-hydroxypropyl)amino)pyrimidin-4-yl)-1H-imidazol-2-yl)methyl)phenyl)-3,5-dimethylbenzamide], in experiment [1], the GI50 stood at 16.8 µM.

As to `C[C@H](O)CNc1nccc(-n2ccnc2Cc2cccc(NC(=O)Nc3ccc(Cl)c(Cl)c3)c2)n1` [Example 22, (S)-1-(3,4-dichlorophenyl)-3-(3-((1-(2-((2-hydroxypropyl)amino)pyrimidin-4-yl)-1H-imidazol-2-yl)methyl)phenyl)urea], the GI50 in experiment [1] is 15.3 µM; in experiment [2] it was 26.2 µM.

With `C[C@H](O)CNc1nccc(-n2ccnc2C(=O)c2ccc(NC(=O)Nc3ccc(Cl)c(C(F)(F)F)c3)cc2)n1` [Example 38, (S)-1-(4-chloro-3-(trifluoromethyl)phenyl)-3-(4-(1-(2-((2-hydroxypropyl)amino)pyrimidin-4-yl)-1H-imidazole-2-carbonyl)phenyl)urea], the GI50 is 7.45 µM in experiment [1] and over 30 µM in experiment [2].

Turning to `C[C@H](O)CNc1nccc(-n2ccnc2Cc2cccc(NC(=O)C(c3ccc(Cl)cc3)c3ccc(Cl)cc3)c2)n1` [Example 17, (S)-2,2-bis(4-chlorophenyl)-N-(3-((1-(2-(2-hydroxypropylamino)pyrimidin-4-yl)-1H-imidazol-2-yl)methyl)phenyl)acetamide], the GI50 in experiment [1] was found to be 3.24 µM; in experiment [2], 3.97 µM.

Regarding `C[C@H](O)CNc1nccc(-n2ccnc2Cc2cccc(NC(=O)c3ccc(Cl)cc3)c2)n1` [Example 6, (S)-4-chloro-N-(3-((1-(2-((2-hydroxypropyl)amino)pyrimidin-4-yl)-1H-imidazol-2-yl)methyl)phenyl)benzamide], the figures for the GI50 in experiment [1] and in experiment [2] were over 30 µM and 10.2 µM, respectively.

With `C[C@H](O)CNc1nccc(-n2ccnc2Cc2cccc(NC(=O)Cc3ccc(-c4ccccc4)cc3)c2)n1` [Example 11, (S)-2-([1,1′-biphenyl]-4-yl)-N-(3-((1-(2-((2-hydroxypropyl)amino)pyrimidin-4-yl)-1H-imidazol-2-yl)methyl)phenyl)acetamide], the results for the GI50 in experiment [1] and in experiment [2] were 10 µM and 11.2 µM, respectively.

Regarding `C[C@H](O)CNc1nccc(-n2ccnc2C(=O)c2ccc(NC(=O)c3cc(N4CCN(C)CC4)cc(C(F)(F)F)c3)cc2)n1` [Example 36, (S)—N-(4-(1-(2-((2-hydroxypropyl)amino)pyrimidin-4-yl)-1H-imidazole-2-carbonyl)phenyl)-3-(4-methylpiperazin-1-yl)-5-(trifluoromethyl)benzamide], the GI50 in experiment [1] is 14.7 µM; in experiment [2] it was over 30 µM.

As for `C[C@H](O)CNc1nccc(-n2ccnc2Cc2cccc(NC(=O)c3ccc(-c4ccccc4)cc3)c2)n1` [Example 12, (S)—N-(3-((1-(2-((2-hydroxypropyl)amino)pyrimidin-4-yl)-1H-imidazol-2-yl)methyl)phenyl)-[1,1′-biphenyl]-4-carboxamide], in experiment [1], the “potency against U937, in words” value is “large potencies; also recorded: better potencies than Sorafenib” and the GI50 amounted to 1.68 µM. Further, in experiment [2], the “potency against A375P, in words” value is on record as “large potencies; also recorded: better potencies than Sorafenib” and the GI50 stood at 0.6 µM.

As to `COc1ccc(-c2ccc(C(=O)Nc3cccc(C(=O)c4nccn4-c4ccnc(NC[C@H](C)O)n4)c3)o2)cc1` [Example 26, (S)—N-(3-(1-(2-((2-hydroxypropyl)amino)pyrimidin-4-yl)-1H-imidazole-2-carbonyl)phenyl)-5-(4-methoxyphenyl)furan-2-carboxamide], the results for the GI50 in experiment [1] and in experiment [2] were 2.55 µM and 9.39 µM, respectively.

Turning to `C[C@H](O)CNc1nccc(-n2ccnc2C(=O)c2ccc(NC(=O)Nc3ccc(Cl)c(Cl)c3)cc2)n1` [Example 39, (S)-1-(3,4-dichlorophenyl)-3-(4-(1-(2-((2-hydroxypropyl)amino)pyrimidin-4-yl)-1H-imidazole-2-carbonyl)phenyl)urea], the GI50 was 11.6 µM in experiment [1] and over 30 µM in experiment [2].

In the case of `C[C@H](O)CNc1nccc(-n2ccnc2C(=O)c2cccc(NC(=O)c3cc(N4CCN(C)CC4)cc(C(F)(F)F)c3)c2)n1` [Example 28, (S)—N-(3-(1-(2-((2-hydroxypropyl)amino)pyrimidin-4-yl)-1H-imidazole-2-carbonyl)phenyl)-3-(4-methylpiperazin-1-yl)-5-(trifluoromethyl)benzamide], the GI50 in experiment [2] turned out to be 27.8 µM.

`C[C@H](O)CNc1nccc(-n2ccnc2Cc2cccc(NC(=O)c3ccc4[nH]nnc4c3)c2)n1` [Example 9, (S)—N-(3-((1-(2-((2-hydroxypropyl)amino)pyrimidin-4-yl)-1H-imidazol-2-yl)methyl)phenyl)-1H-benzo[d][1,2,3]triazole-5-carboxamide]: the results for the GI50 in experiment [1] and in experiment [2] were 18.5 µM and over 30 µM, respectively.

In the case of `C[C@H](O)CNc1nccc(-n2ccnc2Cc2cccc(NC(=O)c3ccc(Cl)c(C(F)(F)F)c3)c2)n1` [Example 19, (S)-4-chloro-N-(3-((1-(2-((2-hydroxypropyl)amino)pyrimidin-4-yl)-1H-imidazol-2-yl)methyl)phenyl)-3-(trifluoromethyl)benzamide], in experiment [1], the “potency against U937, in words” value was “large potencies” and the GI50 stood at 6.83 µM. In experiment [2], the “potency against A375P, in words” value is reported as “large potencies” and the GI50 came to 3.3 µM.

Turning to `C[C@H](O)CNc1nccc(-n2ccnc2Cc2cccc(NC(=O)Cc3ccccc3F)c2)n1` [Example 4, (S)-2-(2-fluorophenyl)-N-(3-((1-(2-((2-hydroxypropyl)amino)pyrimidin-4-yl)-1H-imidazol-2-yl)methyl)phenyl)acetamide], the GI50 in experiment [1] is over 30 µM; in experiment [2] it was 7.45 µM.

For the molecule `C[C@H](O)CNc1nccc(-n2ccnc2C(=O)c2cccc(NC(=O)c3cccc(C(F)(F)F)c3)c2)n1` [Example 25, (S)—N-(3-(1-(2-((2-hydroxypropyl)amino)pyrimidin-4-yl)-1H-imidazole-2-carbonyl)phenyl)-3-(trifluoromethyl)benzamide], the results for the GI50 in experiment [1] and in experiment [2] were 3.78 µM and over 30 µM, respectively.

With `C[C@H](O)CNc1nccc(-n2ccnc2Cc2cccc(NC(=O)c3cc(N4CCOCC4)cc(C(F)(F)F)c3)c2)n1` [Example 20, (S)—N-(3-((1-(2-((2-hydroxypropyl)amino)pyrimidin-4-yl)-1H-imidazol-2-yl)methyl)phenyl)-3-morpholino-5-(trifluoromethyl)benzamide], the GI50 in experiment [1] was 9.7 µM; in experiment [2] it was 6.6 µM.

`C[C@H](O)CNc1nccc(-n2ccnc2Cc2cccc(NC(=O)Nc3cccc(Cl)c3)c2)n1` [Example 21, (S)-1-(3-chlorophenyl)-3-(3-((1-(2-((2-hydroxypropyl)amino)pyrimidin-4-yl)-1H-imidazol-2-yl)methyl)phenyl)urea]: the GI50 turned out to be 1.73 µM in experiment [1] and 19.2 µM in experiment [2].
